Among the data in the OPERA property sets (Mansouri et al. 2018) are logP values, retold here.

In general, logP refers to a log measure of how a compound divides between an organic and an aqueous phase. For `CCCn1cccc(O)c1=O`, the logP turned out to be 0.69.
Turning to `CCc1oc(C)cc(=O)c1O`, the lipophilicity (logP) is 1.07.
As for `CCCCOCc1cc(=O)c(O)co1`, the logP came to 0.78.
Regarding `CCn1cccc(O)c1=O`, the logP is 0.2.
`CCc1occc(=O)c1O` gave a logP of 0.63.
As for `CCCOCc1cc(=O)c(O)co1`, the logP was 0.3.
Consider `NCCn1ccc(=O)c(O)c1`, for which the lipophilicity (logP) is -0.66.
The figure for `Cc1cc(=O)c(O)co1` is -0.59; for `O=c1ccocc1O` it is -0.92; for `Cc1cc(=O)c(O)c(C)o1` it is 0.44.
Regarding `CCOCc1cc(=O)c(O)co1`, the logP is -0.38.
With `COCc1cc(=O)c(O)co1`, the logP is -0.62.
